Data: PubChem BioAssay (NCI)
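Values below derive from 48-hour exposures of cells grown in 96-well plates, with endpoints linearly interpolated between the two concentrations bracketing the appropriate inhibition level. TGI denotes the concentration required for complete inhibition of growth.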

Key:
Experiment in all cases: NCI anticancer screen, dose series, 48 h
NCI-H226 lung = test system: NCI-H226 lung
NCI-H460 lung = test system: NCI-H460 lung
OVCAR-8 ovarian = test system: OVCAR-8 ovarian
IGROV1 ovarian = test system: IGROV1 ovarian
EKVX NSCLC = test system: EKVX NSCLC
MALME-3M melanoma = test system: MALME-3M melanoma
HOP-62 NSCLC = test system: HOP-62 NSCLC
SK-MEL-28 melanoma = test system: SK-MEL-28 melanoma
HT29 colon = test system: HT29 colon
SK-MEL-2 melanoma = test system: SK-MEL-2 melanoma
OVCAR-3 ovarian = test system: OVCAR-3 ovarian
HL-60(TB) leukemia = test system: HL-60(TB) leukemia
DLD-1 colon = test system: DLD-1 colon
NCI-H23 lung = test system: NCI-H23 lung
UACC-62 melanoma = test system: UACC-62 melanoma
MDA-N = test system: MDA-N
MCF7 breast = test system: MCF7 breast
BT-549 breast = test system: BT-549 breast
CAKI-1 renal = test system: CAKI-1 renal
PC-3 prostate = test system: PC-3 prostate

Structure (SMILES) | TGI (NCI-H226 lung) [µM] | TGI (NCI-H460 lung) [µM] | TGI (OVCAR-8 ovarian) [µM] | TGI (IGROV1 ovarian) [µM] | TGI (EKVX NSCLC) [µM] | TGI (MALME-3M melanoma) [µM] | TGI (HOP-62 NSCLC) [µM] | TGI (SK-MEL-28 melanoma) [µM] | TGI (HT29 colon) [µM] | TGI (SK-MEL-2 melanoma) [µM] | TGI (OVCAR-3 ovarian) [µM] | TGI (HL-60(TB) leukemia) [µM] | TGI (DLD-1 colon) [µM] | TGI (NCI-H23 lung) [µM] | TGI (UACC-62 melanoma) [µM] | TGI (MDA-N) [µM] | TGI (MCF7 breast) [µM] | TGI (BT-549 breast) [µM] | TGI (CAKI-1 renal) [µM] | TGI (PC-3 prostate) [µM]
O=C1C=CC2(C=C1)CCNC1=C2C(=O)c2ccccc2C1=O | > 100 | > 100 | > 100 | > 100 | > 100 | > 100 | > 100 | > 100 | > 100 | > 100 | 76.7 | > 100 | > 100 | > 100 | > 100 |  |  |  |  | 
N#Cc1cc([N+](=O)[O-])ccc1NC(=O)/C(=N\NC(=O)c1ccncc1)C(c1cnc2ccc([N+](=O)[O-])cc2n1)[N+](=O)[O-] (stereo unspecified) | 7.58 | 8.17 | 9.83 | 14.2 | 25.1 | 2.61 | 6.8 | 4.81 | 41.8 | 3.73 | 4.29 | 10.6 |  | 2.65 | 2.96 | 1.26 | 3.37 | 3.55 | 17.9 | 21.4
C[C@]12CC[C@H]3[C@@H](CC=C4C[C@@H](O)CC[C@@]43C)[C@@H]1C/C(=C/c1ccccc1)[C@@H]2O | 66.1 | > 100 | 52.1 | 43.9 | > 70 | 79.4 | 54.8 | > 91.2 | > 79.3 | 57.9 | 43.3 | > 100 |  | > 100 | 56.5 | 65.5 | > 68.2 | 72.4 | > 58.9 | > 57.2
OCCCNc1ccnc2cc(Cl)ccc12 | > 100 | > 100 | > 100 | > 100 | > 100 | > 100 | > 100 | > 100 | > 100 | > 100 | > 100 | > 100 | > 100 | > 100 | > 100 |  |  |  | > 100 | 
NC(=O)/C(=N\NC(=O)C[n+]1ccccc1)C1NC(=O)NC1=O (stereo unspecified) | > 100 | > 100 | > 100 | > 100 | > 100 | > 100 | > 100 | > 100 | > 100 | > 100 | > 100 | > 100 | > 100 | > 100 | > 100 |  |  |  | > 100 | 
CC(Oc1ccccc1Cl)C(=O)NN1C(=O)CC(=O)NC1=S (stereo unspecified) | > 100 | > 100 | > 100 | > 100 | > 100 | > 100 | > 100 | > 100 | > 100 | > 100 | > 100 | > 100 |  | > 100 | > 100 | > 100 | > 100 | > 100 | > 100 | > 100
CC(=O)C1Cn2c(=O)c3cc4ccccc4cc3c(=O)n2C=C1C (stereo unspecified) | > 100 | > 100 | > 100 | > 100 | > 100 | > 100 | > 100 | > 100 |  | > 100 | > 100 | > 100 | > 100 | > 100 |  |  |  |  | > 100 | 
Nc1ccc(Oc2ccc(C3(c4ccc(Oc5ccc(N)cc5)cc4)C4CC5CC(C4)CC3C5)cc2)cc1 | > 78.4 | > 100 | > 48.9 | > 44.5 | > 81.4 | > 64.2 | 32.3 | > 77.9 | 24.7 | > 100 | 9.78 | 44.3 |  | > 48.3 | 49.1 | 40.4 | > 52.7 | > 49.2 | > 83.4 | > 52.9
N#Cc1ccc(CSC2=C(c3ccc(Cl)cc3)S/C(=C3\SC(SCc4ccc(C#N)cc4)=C(c4ccc(Cl)cc4)S3)S2)cc1 | > 100 | > 100 | > 100 | > 100 | > 100 | > 100 | > 100 | > 100 | > 100 | > 100 | > 100 | > 100 |  | > 100 | > 100 | > 100 | > 100 | > 100 | > 100 | > 100
C/C(CC(=O)Nc1cc(C)ccc1C)=N/N=C(N)N | > 100 | > 100 | > 100 | > 100 | > 100 | > 100 | > 100 | > 100 | > 100 | > 100 | > 100 | > 100 | > 100 | > 100 | > 100 |  |  |  |  | 
COC(=O)C1=C(OC(=O)c2ccccc2)C(C(=O)OC)[C@@]2(O)[C@@H](C(=O)OC)[C@H](C)C[C@@H]1[C@@H]2C(=O)OC (stereo partly specified) | > 100 | > 100 | > 100 | > 100 | > 100 | > 100 | > 100 | > 100 | > 100 | > 100 | > 100 | > 100 |  | > 100 | > 100 | 63.5 | > 100 | 78.1 | > 100 | > 100
O=C1NC(=O)C(C(=O)C(=O)Nc2ccc(Cl)cc2Cl)C(=O)N1 |  | > 100 | > 100 | > 100 | > 100 | > 100 | > 100 |  |  | > 100 | > 100 | > 100 | > 100 |  | > 100 |  |  |  | > 100 | 
Cc1occc1C(=S)Nc1ccc(Cl)c(/C=N/OC(C)(C)C)c1 | 32.4 | 29.7 | 38.8 | > 56.3 | 43.3 | > 56.5 | 45.9 | 34.4 | 28.5 | 39.5 | 31.3 | 51.5 |  | 34.4 | 28 | 37 | 42.9 | 32.2 | 41.1 | 33
